Measurements: BindingDB's records for doi:10.1007/s00044-007-9052-5 (Central Drug Research Institute, 2008)

Biological target: DNA ligase A (Mycobacterium tuberculosis (strain ATCC 25618 / H37Rv), UniProt P9WNV1)
Assay: Enzyme Assay
Text: All assays have been carried out using procedures previously described by our group (Srivastava et al., 2005a; 2005b; 2007)

Work on `CC1(C)O[C@H]2OC(C(CCO)NCCCN[C@@H](CCO)C3O[C@@H]4OC(C)(C)O[C@@H]4[C@H]3OCc3ccccc3)[C@H](OCc3ccccc3)[C@H]2O1` (stereo partly specified) [Glycosylamine, 4] yielded an IC50 of 46.2 µM.
